In patent US7435721B2, “Transport peptides such as C-terminal Erns peptide and analogues thereof” (Pepscan Systems B.V., priority 2000, dated 2008):
Values after ≈ are worked out from the molar mass of the structure shown.

What was measured:
[1] = test system: Escherichia coli ATCC 25922; assay: Antimicrobial assay (MIC), E. coli; assay type: cell-based; conditions: overnight at 37° C.
Experimental: Antimicrobial assay. Two bacterial strains (Escherichia coli ATCC 25922 and Enterococcus faecalis ATCC 29212) were inoculated on heart infusion agar with 5% sheep blood and incubated aerobically overnight at 37° C. From the pure cultures, suspensions were made in saline to a density of 0.5 McFarland. These suspensions were diluted ten-fold in Mueller Hinton II broth, resulting in a final inoculum of approximately 10^7 cfu/ml.
Standard 96-well microtiter trays were filled with 100 ill of two-fold dilutions of peptide in physiologic salt solution in each well, resulting in the following concentration range: 4000, 2000, 1000, 500, 250, 125, 62.25, 31.63, 15.82, 7.96 and 0 μg/ml. The trays in column 12 were filled with 200 μl MH II broth (negative control).
Columns 1-11 of the microtiter trays were filled with 100 μl of the final inoculum of the bacterial suspensions, thus diluting the concentrations of the peptide two fold, resulting in the following peptide concentration range in the wells: 2000, 1000, 500, 250, 125, 62.25, 31.63, 15.82, 7.96, 3.98 and 0 μg/ml. In rows B, C and D, 100 μl of the final inoculum of E. coli and, in rows E, F and G, 100 μl of the final inoculum of E. faecalis was pipetted. The final bacterial concentration was approximately 5×10^5 cfu/well. All trays were sealed and incubated overnight at 37° C. After incubation, the microtiter trays were inspected visually for bacterial growth and the absorbance of the cultures at 630 nm (A630) was determined with an ELISA-reader. […] The experiment was performed independently in triplicate. The test was repeated again in triplicate after two days with the final peptide concentration range in the wells: 5000, 2500, 1250, 625, 312.5, 156.25, 78.12, 39.06, 19.58, 9.79, 4.88, 2.44 and 1.22 μg/ml.

guinea pig erythrocytes = assay: Hemolytic assay, guinea pig erythrocytes; assay type: cell-based; conditions: 1% v/v, one hour at 37° C.
Experimental: Hemolytic assay. Hemolytic activity of various peptide concentrations was determined by incubation with human, guinea pig or sheep erythrocyte suspensions (final erythrocyte concentration, 1% v/v) for one hour at 37° C. After cooling and centrifugation, the optical density of the supernatants were measured at 540 nm. Peptide concentrations causing 50% hemolysis (EC50) were derived from the dose-response curves.

| Structure (SMILES) | MIC (minimal inhibitory concentration needed to inhibit bacterial growth) [1] [µg/mL] | Hemolysis (peptide concentration causing 50% hemolysis) (guinea pig erythrocytes) [mg/mL] |
| --- | --- | --- |
| CC[C@H](C)[C@H](NC(=O)[C@H](CCCNC(=N)N)NC(=O)[C@H](CC(C)C)NC(=O)[C@H](CCC(N)=O)NC(=O)[C@H](CCCNC(=N)N)NC(=O)CNC(=O)[C@H](CC(C)C)NC(=O)[C@H](Cc1c[nH]c2ccccc12)NC(=O)[C@H](CO)NC(=O)CCCC[C@@H]1SC[C@@H]2NC(=O)N[C@@H]21)C(=O)N[C@@H](C)C(=O)NCC(=O)N[C@@H](CCCCN)C(=O)N[C@@H](CCCNC(=N)N)C(=O)N[C@@H](CC(C)C)C(=O)N[C@@H](CCC(=O)O)C(=O)NCC(=O)N[C@@H](CCCNC(=N)N)C(=O)N[C@@H](CO)C(=O)N[C@@H](CCCCN)C(N)=O [202-220] | 179 (≈ 73.5 µM) | >0.33 |
| CC[C@H](C)[C@H](NC(=O)[C@H](CCCNC(=N)N)NC(=O)[C@H](CC(C)C)NC(=O)[C@H](CCC(N)=O)NC(=O)[C@H](CCCNC(=N)N)NC(=O)CNC(=O)[C@H](CC(C)C)NC(=O)[C@H](Cc1c[nH]c2ccccc12)NC(=O)[C@H](CO)NC(=O)[C@@H](NC(=O)[C@@H](NC(=O)[C@H](CCCNC(=N)N)NC(=O)[C@H](C)NC(=O)[C@H](C)NC(=O)CNC(=O)[C@H](CCC(N)=O)NC(=O)[C@H](CCCNC(=N)N)NC(=O)[C@H](C)NC(=O)[C@H](CC(N)=O)NC(=O)[C@H](CCC(=O)O)NC(=O)CCCC[C@@H]1SC[C@@H]2NC(=O)N[C@@H]21)C(C)C)[C@@H](C)O)C(=O)N[C@@H](C)C(N)=O [191-211] | 395 (≈ 153 µM) | >0.33 |
| CC[C@H](C)[C@H](NC(=O)[C@H](CCCNC(=N)N)NC(=O)[C@H](CC(C)C)NC(=O)[C@H](CCC(N)=O)NC(=O)[C@H](CCCNC(=N)N)NC(=O)CNC(=O)[C@H](CC(C)C)NC(=O)[C@H](Cc1c[nH]c2ccccc12)NC(=O)[C@H](CO)NC(=O)[C@@H](NC(=O)[C@@H](NC(=O)[C@H](CCCNC(=N)N)NC(=O)[C@H](C)NC(=O)[C@H](C)NC(=O)CNC(=O)CCCC[C@@H]1SC[C@@H]2NC(=O)N[C@@H]21)C(C)C)[C@@H](C)O)C(=O)N[C@@H](C)C(=O)NCC(=O)N[C@@H](CCCCN)C(=O)N[C@@H](CCCNC(=N)N)C(=O)N[C@@H](CC(C)C)C(=O)N[C@@H](CCC(=O)O)C(=O)NCC(=O)N[C@@H](CCCNC(=N)N)C(=O)N[C@@H](CO)C(=O)N[C@@H](CCCCN)C(N)=O [196-220] | 25 (≈ 8.35 µM) | 0.16 |
| CC[C@H](C)[C@H](NC(=O)[C@H](CCCNC(=N)N)NC(=O)[C@H](CC(C)C)NC(=O)[C@H](CCC(N)=O)NC(=O)[C@H](CCCNC(=N)N)NC(=O)CNC(=O)[C@H](CC(C)C)NC(=O)[C@H](Cc1c[nH]c2ccccc12)NC(=O)[C@H](CO)NC(=O)[C@@H](NC(=O)[C@@H](NC(=O)[C@H](CCCNC(=N)N)NC(=O)[C@H](C)NC(=O)[C@H](C)NC(=O)CNC(=O)[C@H](CCC(N)=O)NC(=O)[C@H](CCCNC(=N)N)NC(=O)[C@H](C)NC(=O)[C@H](CC(N)=O)NC(=O)[C@H](CCC(=O)O)NC(=O)[C@@H](NC(=O)[C@@H](NC(=O)[C@H](CC(N)=O)NC(=O)[C@@H](NC(=O)[C@H](CCSC)NC(=O)CNC(=O)[C@H](CC(=O)O)NC(=O)[C@H](CC(C)C)NC(=O)[C@H](CC(C)C)NC(=O)[C@H](Cc1ccc(O)cc1)NC(=O)[C@H](CC(C)C)NC(=O)[C@H](C)NC(=O)[C@@H](NC(=O)[C@H](CC(=O)O)NC(=O)[C@H](CCC(N)=O)NC(=O)[C@H](CC(C)C)NC(=O)[C@H](CC(C)C)NC(=O)[C@H](CO)NC(=O)CNC(=O)CCCC[C@@H]1SC[C@@H]2NC(=O)N[C@@H]21)[C@@H](C)O)[C@@H](C)O)[C@@H](C)O)[C@@H](C)CC)C(C)C)[C@@H](C)O)C(=O)N[C@@H](C)C(N)=O [172-211] | >500 | >0.33 |
| CC[C@H](C)[C@H](NC(=O)[C@H](CCCNC(=N)N)NC(=O)[C@H](CC(C)C)NC(=O)[C@H](CCC(N)=O)NC(=O)[C@H](CCCNC(=N)N)NC(=O)CNC(=O)[C@H](CC(C)C)NC(=O)[C@H](Cc1c[nH]c2ccccc12)NC(=O)[C@H](CO)NC(=O)[C@@H](NC(=O)[C@@H](NC(=O)[C@H](CCCNC(=N)N)NC(=O)CCCC[C@@H]1SC[C@@H]2NC(=O)N[C@@H]21)C(C)C)[C@@H](C)O)C(=O)N[C@@H](C)C(=O)NCC(=O)N[C@@H](CCCCN)C(=O)N[C@@H](CCCNC(=N)N)C(=O)N[C@@H](CC(C)C)C(=O)N[C@@H](CCC(=O)O)C(=O)NCC(=O)N[C@@H](CCCNC(=N)N)C(=O)N[C@@H](CO)C(=O)N[C@@H](CCCCN)C(N)=O [199-220] | 23 (≈ 8.23 µM) | 0.18 |
| CC[C@H](C)[C@H](NC(=O)[C@H](CCCNC(=N)N)NC(=O)[C@H](CC(C)C)NC(=O)[C@H](CCC(N)=O)NC(=O)[C@H](CCCNC(=N)N)NC(=O)CNC(=O)[C@H](CC(C)C)NC(=O)[C@H](Cc1c[nH]c2ccccc12)NC(=O)[C@H](CO)NC(=O)[C@@H](NC(=O)[C@@H](NC(=O)[C@H](CCCNC(=N)N)NC(=O)[C@H](C)NC(=O)[C@H](C)NC(=O)CNC(=O)[C@H](CCC(N)=O)NC(=O)[C@H](CCCNC(=N)N)NC(=O)[C@H](C)NC(=O)[C@H](CC(N)=O)NC(=O)[C@H](CCC(=O)O)NC(=O)CCCC[C@@H]1SC[C@@H]2NC(=O)N[C@@H]21)C(C)C)[C@@H](C)O)C(=O)N[C@@H](C)C(=O)NCC(=O)N[C@@H](CCCCN)C(=O)N[C@@H](CCCNC(=N)N)C(=O)N[C@@H](CC(C)C)C(=O)N[C@@H](CCC(=O)O)C(=O)NCC(=O)N[C@@H](CCCNC(=N)N)C(=O)N[C@@H](CO)C(=O)N[C@@H](CCCCN)C(N)=O [191-220] | 47 (≈ 13.1 µM) | 0.31 |
| CC[C@H](C)[C@H](NC(=O)[C@H](CCCNC(=N)N)NC(=O)[C@H](CC(C)C)NC(=O)[C@H](CCC(N)=O)NC(=O)[C@H](CCCNC(=N)N)NC(=O)CNC(=O)[C@H](CC(C)C)NC(=O)[C@H](Cc1c[nH]c2ccccc12)NC(=O)[C@H](CO)NC(=O)[C@@H](NC(=O)[C@@H](NC(=O)[C@H](CCCNC(=N)N)NC(=O)[C@H](C)NC(=O)[C@H](C)NC(=O)CNC(=O)[C@H](CCC(N)=O)NC(=O)[C@H](CCCNC(=N)N)NC(=O)[C@H](C)NC(=O)[C@H](CC(N)=O)NC(=O)[C@H](CCC(=O)O)NC(=O)CCCC[C@@H]1SC[C@@H]2NC(=O)N[C@@H]21)C(C)C)[C@@H](C)O)C(=O)N[C@@H](C)C(=O)NCC(=O)N[C@@H](CCCCN)C(=O)N[C@@H](CCCNC(=N)N)C(=O)N[C@@H](CC(C)C)C(=O)N[C@@H](CCC(=O)O)C(N)=O [191-216] | 95 (≈ 30 µM) | >0.33 |
| CC[C@H](C)[C@H](NC(=O)[C@H](CCCNC(=N)N)NC(=O)[C@H](CC(C)C)NC(=O)[C@H](CCC(N)=O)NC(=O)[C@H](CCCNC(=N)N)NC(=O)CNC(=O)[C@H](CC(C)C)NC(=O)[C@H](Cc1c[nH]c2ccccc12)NC(=O)[C@H](CO)NC(=O)[C@@H](NC(=O)[C@@H](NC(=O)[C@H](CCCNC(=N)N)NC(=O)[C@H](C)NC(=O)[C@H](C)NC(=O)CNC(=O)[C@H](CCC(N)=O)NC(=O)[C@H](CCCNC(=N)N)NC(=O)[C@H](C)NC(=O)[C@H](CC(N)=O)NC(=O)[C@H](CCC(=O)O)NC(=O)[C@@H](NC(=O)[C@@H](NC(=O)[C@H](CC(N)=O)NC(=O)[C@@H](NC(=O)[C@H](CCSC)NC(=O)CNC(=O)[C@H](CC(=O)O)NC(=O)CCCC[C@@H]1SC[C@@H]2NC(=O)N[C@@H]21)[C@@H](C)O)[C@@H](C)O)[C@@H](C)CC)C(C)C)[C@@H](C)O)C(=O)N[C@@H](C)C(=O)NCC(=O)N[C@@H](CCCCN)C(=O)N[C@@H](CCCNC(=N)N)C(=O)N[C@@H](CC(C)C)C(=O)N[C@@H](CCC(=O)O)C(=O)NCC(=O)N[C@@H](CCCNC(=N)N)C(=O)N[C@@H](CO)C(=O)N[C@@H](CCCCN)C(=O)N[C@H](C(=O)N[C@@H](Cc1c[nH]c2ccccc12)C(=O)N[C@@H](Cc1ccccc1)C(N)=O)[C@@H](C)O [184-223] | 46 (≈ 9.67 µM) | 0.15 |
